Data from patent US10221161B2, “Inhibitors of plasma kallikrein” (Kalvista Pharmaceuticals Limited, priority 2013, dated 2019).
pIC50: −log10 of the molar value. One block for each compound: values may come before it.

What was measured:
Human plasma kallikrein = Human plasma kallikrein (Homo sapiens (Human), UniProt P03952); experiment: Determination of the IC50 for plasma kallikrein (fluorogenic substrate H-DPro-Phe-Arg-AFC); assay type: biochemical; settings: 37° C., read-out: IC50 (human PKal)
Method: Determination of the IC50 Plasma Kallikrein Plasma kallikrein inhibitory activity in vitro was determined using standard published methods (see e.g. Johansen et al., Int. J. Tiss. […] Shori et al., Biochem. Pharmacol., 1992, 43, 1209; Stürzebecher et al., Biol. Chem. Hoppe-Seyler, 1992, 373, 1025). Human plasma kallikrein (Protogen) was incubated at 37° C. with the fluorogenic substrate […] and various concentrations of the test compound.

Human KLK1 = Human KLK1 (Homo sapiens (Human), UniProt P06870); experiment: Determination of the IC50 for KLK1 (fluorogenic substrate H-DVal-Leu-Arg-AFC); assay type: biochemical; settings: human KLK1, 37° C.
Method: Selected compounds were further screened for inhibitory activity against the related enzyme KLK1. The ability of the compounds of formula (I) to inhibit KLK1 may be determined using the following biological assay:
Determination of the IC50 for KLK1
KLK1 inhibitory activity in vitro was determined using standard published methods (see e.g. Johansen et al., Int. J. Tiss. Reac. 1986, 8, 185; Shori et al., Biochem. Pharmacol., 1992, 43, 1209; Stürzebecher et al., Biol. Chem. Hoppe-Seyler, 1992, 373, 1025). Human KLK1 (Callbiochem) was incubated at 37° C. with the fluorogenic substrate H-DVal-Leu-Arg-AFC and various concentrations of the test compound. Residual enzyme activity (initial rate of reaction) was determined by measuring the change in optical absorbance at 410 nm and the IC50 value for the test compound was determined.

Sequence of Human plasma kallikrein (P03952 391-638 limits assumed): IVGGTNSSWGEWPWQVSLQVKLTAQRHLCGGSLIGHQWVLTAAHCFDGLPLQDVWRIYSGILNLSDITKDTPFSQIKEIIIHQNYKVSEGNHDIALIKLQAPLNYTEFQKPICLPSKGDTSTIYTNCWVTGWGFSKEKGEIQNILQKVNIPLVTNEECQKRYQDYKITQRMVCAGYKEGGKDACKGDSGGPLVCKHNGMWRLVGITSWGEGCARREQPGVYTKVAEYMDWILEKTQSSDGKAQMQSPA
Sequence of Human plasma kallikrein (P03952 20-390 partner limits assumed): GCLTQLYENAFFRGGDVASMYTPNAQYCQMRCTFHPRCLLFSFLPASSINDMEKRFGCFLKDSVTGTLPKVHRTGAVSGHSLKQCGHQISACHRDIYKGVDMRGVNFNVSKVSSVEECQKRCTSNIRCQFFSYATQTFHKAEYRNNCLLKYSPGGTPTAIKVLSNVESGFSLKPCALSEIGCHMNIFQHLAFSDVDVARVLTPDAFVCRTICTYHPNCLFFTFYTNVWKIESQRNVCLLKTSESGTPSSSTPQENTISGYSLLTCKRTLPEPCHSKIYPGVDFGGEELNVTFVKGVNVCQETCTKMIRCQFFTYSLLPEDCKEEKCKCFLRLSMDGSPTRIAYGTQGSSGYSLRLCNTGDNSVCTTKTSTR
Sequence of Human KLK1 (P06870 25-262): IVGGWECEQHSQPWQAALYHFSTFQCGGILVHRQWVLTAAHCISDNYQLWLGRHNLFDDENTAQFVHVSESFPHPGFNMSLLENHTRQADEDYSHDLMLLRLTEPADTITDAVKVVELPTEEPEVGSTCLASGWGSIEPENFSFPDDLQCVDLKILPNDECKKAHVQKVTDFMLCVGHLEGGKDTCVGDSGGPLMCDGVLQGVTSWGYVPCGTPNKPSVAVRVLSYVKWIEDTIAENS

pIC50 (Human plasma kallikrein): 6.63 | pIC50 (Human KLK1): 5.02
SMILES: Nc1nccc2cc(CNC(=O)c3cncc(Cc4cccc(Cn5cccn5)c4)c3)ccc12 [Example 32, N-[(1-Aminoisoquinolin-6-yl)methyl]-5-{[3-(pyrazol-1-ylmethyl)phenyl]methyl}pyridine-3-carboxamide]

pIC50 (Human plasma kallikrein): 5.45 | pIC50 (Human KLK1): 4.53
SMILES: Nc1nccc2cc(CNC(=O)c3cncc(CN4CCN(S(=O)(=O)c5ccccc5)CC4)c3)ccc12 [Example 35, N-[(1-Aminoisoquinolin-6-yl)methyl]-5-{[4-(benzenesulfonyl)piperazin-1-yl]methyl}pyridine-3-carboxamide]

pIC50 (Human plasma kallikrein): 6.97 | pIC50 (Human KLK1): 5.07
SMILES: CN1CCOc2cc(Cc3cncc(C(=O)NCc4ccc5c(N)nccc5c4)c3)ccc21 [Example 38, N-[(1-Aminoisoquinolin-6-yl)methyl]-5-[(4-methyl-2,3-dihydro-1,4-benzoxazin-7-yl)methyl]pyridine-3-carboxamide]

pIC50 (Human plasma kallikrein): 6.90 | pIC50 (Human KLK1): 5.31
SMILES: Cc1cnn(CCOCc2cncc(C(=O)NCc3ccc4c(N)nccc4c3)c2)c1 [Example 40, N-[(1-Aminoisoquinolin-6-yl)methyl]-5-{[2-(4-methylpyrazol-1-yl)ethoxy]methyl}pyridine-3-carboxamide]

pIC50 (Human plasma kallikrein): 5.74 | pIC50 (Human KLK1): 4.61
SMILES: COc1ccccc1CN1CCN(Cc2cncc(C(=O)NCc3ccc4c(N)nccc4c3)c2)CC1 [Example 42, N-[(1-Aminoisoquinolin-6-yl)methyl]-5-({4-[(2-methoxyphenyl)methyl]piperazin-1-yl}methyl)pyridine-3-carboxamide]

pIC50 (Human plasma kallikrein): 5.17 | pIC50 (Human KLK1): 4.55
SMILES: Nc1nccc2cc(CNC(=O)c3cncc(CN4CCN(Cc5ccccc5F)CC4)c3)ccc12 [Example 44, N-[(1-Aminoisoquinolin-6-yl)methyl]-5-({4-[(2-fluorophenyl)methyl]piperazin-1-yl}methyl)pyridine-3-carboxamide]

pIC50 (Human plasma kallikrein): 4.47 | pIC50 (Human KLK1): 4.57
SMILES: COc1ccc(CN2CCN(Cc3cncc(C(=O)NCc4ccc5c(N)nccc5c4)c3)CC2)cc1 [Example 45, N-[(1-Aminoisoquinolin-6-yl)methyl]-5-({4-[(4-methoxyphenyl)methyl]piperazin-1-yl}methyl)pyridine-3-carboxamide]

pIC50 (Human plasma kallikrein): 5.12 | pIC50 (Human KLK1): 4.53
SMILES: Nc1nccc2cc(CNC(=O)c3cncc(CN4CCN(Cc5cccc(F)c5)CC4)c3)ccc12 [Example 46, N-[(1-Aminoisoquinolin-6-yl)methyl]-5-({4-[(3-fluorophenyl)methl]piperazin-1-yl}methyl)pyridine-3-carboxamide]

pIC50 (Human plasma kallikrein): 5.09 | pIC50 (Human KLK1): < 5.00
SMILES: Nc1nccc2cc(CNC(=O)c3cncc(CN4CCN(CCc5ccccc5)CC4)c3)ccc12 [Example 51, N-[(1-Aminoisoquinolin-6-yl)methyl]-5-{[4-(2-phenylethyl)piperazin-1-yl]methyl}pyridine-3-carboxamide]

pIC50 (Human plasma kallikrein): 4.84 | pIC50 (Human KLK1): 4.97
SMILES: Nc1nccc2cc(CNC(=O)c3cncc(Cc4ccc(F)nc4)c3)ccc12 [Example 54, N-[(1-Aminoisoquinolin-6-yl)methyl]-5-[(6-fluoropyridin-3-yl)methyl]pyridine-3-carboxamide]

pIC50 (Human plasma kallikrein): 6.50 | pIC50 (Human KLK1): < 4.40
SMILES: Nc1nccc2cc(CNC(=O)c3cncc(Cc4ccc(N5CCCCC5)nc4)c3)ccc12 [Example 56, N-[(1-Aminoisoquinolin-6-yl)methyl]-5-{[6-(piperidin-1-yl)pyridin-3-yl]methyl}pyridine-3-carboxamide]

pIC50 (Human plasma kallikrein): 6.82 | pIC50 (Human KLK1): 5.19
SMILES: CC1CCCN1c1ccc(Cc2cncc(C(=O)NCc3ccc4c(N)nccc4c3)c2)cn1 (stereo not drawn) [Example 58, N-[(1-Aminoisoquinolin-6-yl)methyl]-5-{[6-(2-methylpyrrolidin-1-yl)pyridin-3-yl]methyl}pyridine-3-carboxamide]

More lines, now with the values behind:

SMILES: Nc1nccc2cc(CNC(=O)c3cncc(Cc4ccc(-n5cccn5)cc4)c3)ccc12 [Example 27, N-[(1-Aminoisoquinolin-6-yl)methyl]-5-{[4-(pyrazol-1-yl)phenyl]methyl}pyridine-3-carboxamide]
pIC50 (Human plasma kallikrein): 6.00 | pIC50 (Human KLK1): 4.92

SMILES: Nc1nccc2cc(CNC(=O)c3cncc(Cc4ccc5ccncc5c4)c3)ccc12 [Example 28, N-[(1-Aminoisoquinolin-6-yl)methyl]-5-(isoquinolin-7-ylmethyl)pyridine-3-carboxamide]
pIC50 (Human plasma kallikrein): 5.96 | pIC50 (Human KLK1): 5.23

SMILES: COc1ccccc1Cc1cncc(C(=O)NCc2ccc3c(N)nccc3c2)c1 [Example 29, N-[(1-Aminoisoquinolin-6-yl)methyl]-5-[(2-methoxyphenyl)methyl]pyridine-3-carboxamide]
pIC50 (Human plasma kallikrein): 4.69 | pIC50 (Human KLK1): 5.13

SMILES: Nc1nccc2cc(CNC(=O)c3cncc(Cc4cccc(-n5cccn5)c4)c3)ccc12 [Example 30, N-[(1-Aminoisoquinolin-6-yl)methyl]-5-{[3-(pyrazol-1-yl)phenyl]methyl}pyridine-3-carboxamide]
pIC50 (Human plasma kallikrein): 6.52 | pIC50 (Human KLK1): 5.55

SMILES: Nc1nccc2cc(CNC(=O)c3cncc(Cc4ccc5ncccc5c4)c3)ccc12 [Example 31, N-[(1-Aminoisoquinolin-6-yl)methyl]-5-(quinolin-6-ylmethyl)pyridine-3-carboxamide]
pIC50 (Human plasma kallikrein): 6.84 | pIC50 (Human KLK1): 5.38

SMILES: COc1cc(Cc2cncc(C(=O)NCc3ccc4c(N)nccc4c3)c2)ccc1Cn1cc(C)cn1 [Example 33, N-[(1-Aminoisoquinolin-6-yl)methyl]-5-({3-methoxy-4-[(4-methylpyrazol-1-yl)methyl]phenyl}methyl)pyridine-3-carboxamide]
pIC50 (Human plasma kallikrein): 7.77 | pIC50 (Human KLK1): 4.77

SMILES: COCCOc1ccc(Cc2cncc(C(=O)NCc3ccc4c(N)nccc4c3)c2)cc1 [Example 34, N-[(1-Aminoisoquinolin-6-yl)methyl]-5-{[4-(2-methoxyethoxy)phenyl]methyl}pyridine-3-carboxamide]
pIC50 (Human plasma kallikrein): 5.99 | pIC50 (Human KLK1): < 4.40

SMILES: Nc1nccc2cc(CNC(=O)c3cncc(CN4CCN(C(=O)c5ccccc5)CC4)c3)ccc12 [Example 36, N-[(1-Aminoisoquinolin-6-yl)methyl]-5-[(4-benzoylpiperazin-1-yl)methyl]pyridine-3-carboxamide]
pIC50 (Human plasma kallikrein): 5.18 | pIC50 (Human KLK1): 4.62

SMILES: Nc1nccc2cc(CNC(=O)c3cncc(CN4CCN(Cc5ccccc5)CC4)c3)ccc12 [Example 41, N-[(1-Aminoisoquinolin-6-yl)methyl]-5-[(4-benzylpiperazin-1-yl)methyl]pyridine-3-carboxamide]
pIC50 (Human plasma kallikrein): 5.56 | pIC50 (Human KLK1): 4.43

SMILES: Nc1nccc2cc(CNC(=O)c3cncc(CN4CCN(CC5CCCC5)CC4)c3)ccc12 [Example 43, N-[(1-Aminoisoquinolin-6-yl)methyl]-5-{[4-(cyclopentylmethyl)piperazin-1-yl]methyl}pyridine-3-carboxamide]
pIC50 (Human plasma kallikrein): 4.96 | pIC50 (Human KLK1): 4.75

SMILES: Cn1cc(CN2CCN(Cc3cncc(C(=O)NCc4ccc5c(N)nccc5c4)c3)CC2)cn1 [Example 47, N-[(1-Aminoisoquinolin-6-yl)methyl]-5-({4-[(1-methylpyrazol-4-yl)methyl]piperazin-1-yl}methyl)pyridine-3-carboxamide]
pIC50 (Human plasma kallikrein): 4.40 | pIC50 (Human KLK1): < 4.40

SMILES: Nc1nccc2cc(CNC(=O)c3cncc(CN4CCN(Cc5ccc(F)cc5)CC4)c3)ccc12 [Example 48, N-[(1-Aminoisoquinolin-6-yl)methyl]-5-({4-[(4-fluorophenyl)methyl]piperazin-1-yl}methyl)pyridine-3-carboxamide]
pIC50 (Human plasma kallikrein): 4.66 | pIC50 (Human KLK1): < 4.40

SMILES: COc1cccc(CN2CCN(Cc3cncc(C(=O)NCc4ccc5c(N)nccc5c4)c3)CC2)c1 [Example 49, N-[(1-Aminoisoquinolin-6-yl)methyl]-5-({4-[(3-methoxyphenyl)methyl]piperazin-1-yl}methyl)pyridine-3-carboxamide]
pIC50 (Human plasma kallikrein): 5.16 | pIC50 (Human KLK1): < 5.00

SMILES: Nc1nccc2cc(CNC(=O)c3cncc(CN4CCN(CCCc5ccccc5)CC4)c3)ccc12 [Example 50, N-[(1-Aminoisoquinolin-6-yl)methyl]-5-{[4-(3-phenylpropyl)piperazin-1-yl]methyl}pyridine-3-carboxamide]
pIC50 (Human plasma kallikrein): 5.00 | pIC50 (Human KLK1): < 5.00

SMILES: Nc1nccc2cc(CNC(=O)c3cncc(CN4CCN(CC(=O)O)CC4)c3)ccc12 [Example 52, {4-[(5-{[(1-Aminoisoquinolin-6-yl)methyl]carbamoyl}pyridin-3-yl)methyl]piperazin-1-yl}acetic acid]
pIC50 (Human plasma kallikrein): 5.00 | pIC50 (Human KLK1): < 5.00

SMILES: Nc1nccc2cc(CNC(=O)c3cncc(Cc4ccc(N5CCCC5=O)nc4)c3)ccc12 [Example 53, N-[(1-Aminoisoquinolin-6-yl)methyl]-5-{[6-(2-oxopyrrolidin-1-yl)pyridin-3-yl]methyl}pyridine-3-carboxamide]
pIC50 (Human plasma kallikrein): 6.70 | pIC50 (Human KLK1): 5.41

SMILES: Nc1nccc2cc(CNC(=O)c3cncc(Cc4ccc(N5CCCC5)nc4)c3)ccc12 [Example 55, N-[(1-Aminoisoquinolin-6-yl)methyl]-5-{[6-(pyrrolidin-1-yl)pyridin-3-yl]methyl}pyridine-3-carboxamide]
pIC50 (Human plasma kallikrein): 6.99 | pIC50 (Human KLK1): 5.30

SMILES: Nc1nccc2cc(CNC(=O)c3cncc(Cc4ccc(N5CCC(F)(F)C5)nc4)c3)ccc12 [Example 57, N-[(1-Aminoisoquinolin-6-yl)methyl]-5-{[6-(3,3-difluoropyrrolidin-1-yl)pyridin-3-yl]methyl}pyridine-3-carboxamide]
pIC50 (Human plasma kallikrein): 6.62 | pIC50 (Human KLK1): < 4.40
